Tests used:
Format in all cases: biochemical
[1] = tested on: α-isomaltosylglucosaccharide-forming enzyme from Bacillus globisporus C11 strain; test: Specificity of saccharide transferring reaction acceptor, enzyme of Strain C11; conditions: 1.6% acceptor, 4% PINE-DEX #100 as donor, one unit/g donor, 30° C., pH 6.0, 24 hours; GLC or HPLC
Protocol: (§1) Using different saccharides, it was tested whether the saccharides were used as saccharide transferring reaction acceptors for the α-isomaltosylglucosaccharide-forming enzyme. A 1.6% solution, as a solution of saccharide transferring reaction acceptor, of D-glucose, D-xylose, L-xylose, D-galactose, D-fructose, D-mannose, D-arabinose, D-fucose, L-sorbose, L-rhamnose, methyl-α-glucopyranoside (methyl-α-glucose), methyl-β-glucopyranoside ([…]), N-acetyl-glucosamine, sorbitol, α,α-trehalose, isomaltose, isomaltotriose, cellobiose, gentibiose, maltitol, lactose, sucrose, α-cyclodextrin, β-cyclodextrin, or γ-cyclodextrin, was prepared. To each solution with a saccharide concentration was added “PINE-DEX #100”, a partial starch hydrolysate, as a saccharide donor, to give a concentration of 4%, and admixed with one unit/g saccharide donor, d.s.b., of either of purified specimens of α-isomaltosylglucosaccharide-forming enzyme from Bacillus globisporus C9 strain obtained by the method in Experiment 2-1, Bacillus globisporus C11 strain obtained by the method in Experiment 4-1. The resulting mixture solutions were incubated at 30° C. and pH 6.0 except that the enzyme from Arthrobacter globiformis A19 strain was incubated at pH 8.4 for 24 hours. The reaction mixtures of the post-enzymatic reactions were analyzed on gas chromatography (abbreviated as “GLC” hereinafter) for monosaccharides and disaccharides as acceptors, and on HPLC for trisaccharides as acceptors to confirm whether these saccharides could be used as their saccharide transferring reaction acceptors. In the case of performing GLC, the following apparatuses and conditions are used: GLC apparatus, “GC-16A” commercialized by Shimadzu Corporation, Tokyo, Japan; column, a stainless-steel column, 3 mm in diameter and 2 m in length, packed with 2% “SILICONE OV-17/CHROMOSOLV W”, commercialized by GL Sciences Inc., Tokyo, Japan; carrier gas, nitrogen gas at a flow rate of 40 ml/min under temperature conditions of increasing from 160° C. to 320° C. at an increasing temperature rate of 7.5° C./min; and detection, a hydrogen flame ionization detector.
(§2) In the case of HPLC analysis, the apparatuses and conditions used were: HPLC apparatus, “CCPD” commercialized by Tosoh Corporation, Tokyo, Japan; column, “ODS-AQ-303” commercialized by YMC Co., Ltd., Tokyo, Japan; eluent, water at a flow rate of 0.5 ml/min; and detection, a differential refractometer.

[2] = tested on: α-isomaltosylglucosaccharide-forming enzyme from Bacillus globisporus C9; test: Action of α-isomaltosylglucosaccharide-forming enzyme on saccharides as substrates (TLC), enzyme of Strain C9; design: key: −: it showed no change; +: it showed a slight reduction of the color of substrate spot and the formation of other reaction product; ++: it showed a high reduction of the color of substrate spot and the formation of other reaction product; +++: it showed a substantial disappearance of the color of substrate spot and the formation of other reaction product; conditions: two units/g substrate, substrate 2% (w/v), 30° C., pH 6.0, 24 hours
Protocol: (§3) The action of α-isomaltosylglucosaccharide-forming enzyme on saccharides as substrates was tested. First, a solution of maltose, maltotriose, maltotetraose, maltopentaose, maltohexaose, maltoheptaose, isomaltose, isomaltotriose, panose, isopanose, α,α-trehalose (may be abbreviated as “trehalose” hereinafter), kojibiose, nigerose, neotrehalose, cellobiose, gentibiose, maltitol, maltotriitol, lactose, sucrose, erlose, selaginose, maltosyl glucoside, or isomaltosyl glucoside was prepared. To each of the above solutions was added two units/g substrate of the purified specimen of α-isomaltosylglucosaccharide-forming enzyme from Bacillus globisporus C9 in Experiment 2-1 or Bacillus globisporus C11 in Experiment 4-1, and each resulting solution was adjusted to give a substrate concentration of 2% (w/v) and incubated at 30° C. and pH 6.0 for 24 hours. The solutions before and after the enzymatic reactions were respectively subjected to thin-layer chromatography (abbreviated as “TLC” hereinafter). TLC was carried out in such a manner of separating saccharides by developing the solutions twice each using, as a developer, a mixture solution of n-butanol, pyridine, and water (=6:4:1), and, as a thin-layer plate, “[…] 60”, an aluminum plate (20×20 cm) for TLC commercialized by Merck & Co., Inc., Rahway, USA.; detecting the total saccharides in each mixture solution by spraying a mixture of sulfuric acid and methanol onto the aluminum plates to develop color of the total saccharides and detecting non-reducing saccharides in each mixture solution by the diphenylamine-aniline method.

[3] = tested on: α-isomaltosylglucosaccharide-forming enzyme from Bacillus globisporus C9 strain; test: Specificity of saccharide transferring reaction acceptor, enzyme of Strain C9; conditions: 1.6% acceptor, 4% PINE-DEX #100 as donor, one unit/g donor, 30° C., pH 6.0, 24 hours; GLC or HPLC
Protocol: as §1, §2

[4] = tested on: α-isomaltosylglucosaccharide-forming enzyme from Bacillus globisporus C11; test: Action of α-isomaltosylglucosaccharide-forming enzyme on saccharides as substrates (TLC), enzyme of Strain C11; design: key: −: it showed no change; +: it showed a slight reduction of the color of substrate spot and the formation of other reaction product; ++: it showed a high reduction of the color of substrate spot and the formation of other reaction product; +++: it showed a substantial disappearance of the color of substrate spot and the formation of other reaction product; conditions: two units/g substrate, substrate 2% (w/v), 30° C., pH 6.0, 24 hours
Protocol: as §3

Row | Compound | Product of saccharide transferring reaction, Enzyme of Strain C11 [1] | Enzymatic action, Enzyme of Strain C9 [2] | Product of saccharide transferring reaction, Enzyme of Strain C9 [3] | Enzymatic action, Enzyme of Strain C11 [4]
1 | O=C[C@H](O)[C@@H](O)[C@H](O[C@@H]1O[C@H](CO)[C@@H](O)[C@H](O)[C@H]1O)[C@H](O)CO [Cellobiose, cellobiose] | ++ (a saccharide-transferred product was detected in an amount of at least ten percent through transferring reaction to acceptor) | − | ++ (a saccharide-transferred product was detected in an amount of at least ten percent through transferring reaction to acceptor) | −
2 | OC[C@H]1O[C@@](CO)(O[C@H]2O[C@H](CO)[C@@H](O[C@H]3O[C@H](CO)[C@@H](O)[C@H](O)[C@H]3O)[C@H](O)[C@H]2O)[C@@H](O)[C@@H]1O [Erlose, erlose] |  | + |  | +
3 | OC[C@H]1O[C@@H](OC[C@H]2OC(O)[C@H](O)[C@@H](O)[C@@H]2O)[C@H](O)[C@@H](O)[C@@H]1O (stereo partly drawn) [Gentibiose, gentibiose] | ++ (a saccharide-transferred product was detected in an amount of at least ten percent through transferring reaction to acceptor) | − | ++ (a saccharide-transferred product was detected in an amount of at least ten percent through transferring reaction to acceptor) | −
4 | OC[C@H]1O[C@H](OC[C@H]2OC(O)[C@H](O)[C@@H](O)[C@@H]2O)[C@H](O)[C@@H](O)[C@@H]1O (stereo partly drawn) [Isomaltose, isomaltose] | ++ (a saccharide-transferred product was detected in an amount of at least ten percent through transferring reaction to acceptor) | − | ++ (a saccharide-transferred product was detected in an amount of at least ten percent through transferring reaction to acceptor) | −
5 | OC[C@H]1O[C@H](OC[C@H]2O[C@H](OC[C@H]3OC(O)[C@H](O)[C@@H](O)[C@@H]3O)[C@H](O)[C@@H](O)[C@@H]2O)[C@H](O)[C@@H](O)[C@@H]1O (stereo partly drawn) [Isomaltotriose, isomaltotriose] | ++ (a saccharide-transferred product was detected in an amount of at least ten percent through transferring reaction to acceptor) | − | ++ (a saccharide-transferred product was detected in an amount of at least ten percent through transferring reaction to acceptor) | −
6 | OC[C@H]1O[C@H](O[C@H]2[C@H](O)[C@@H](O)[C@@H](OC[C@H]3OC(O)[C@H](O)[C@@H](O)[C@@H]3O)O[C@@H]2CO)[C@H](O)[C@@H](O)[C@@H]1O (stereo partly drawn) [Isopanose, isopanose] |  | ++ |  | ++
7 | OC[C@H]1O[C@H](O[C@H]2C(O)O[C@H](CO)[C@@H](O)[C@@H]2O)[C@H](O)[C@@H](O)[C@@H]1O (stereo partly drawn) [Kojibiose, kojibiose] |  | + |  | +
8 | OC[C@H]1O[C@H](O[C@H]2[C@H](O)[C@@H](O)[C@H](O)O[C@@H]2CO)[C@H](O)[C@@H](O)[C@@H]1O [Maltose, maltose] |  | + |  | +
9 | OC[C@H]1O[C@H](O[C@H]2O[C@H](CO)[C@@H](O[C@H]3O[C@H](CO)[C@@H](O)[C@H](O)[C@H]3O)[C@H](O)[C@H]2O)[C@H](O)[C@@H](O)[C@@H]1O [Maltosylglucoside, maltosyl glucoside] |  | ++ |  | ++
10 | OC[C@H]1O[C@H](O[C@H]2[C@H](O)[C@@H](O)[C@@H](O[C@H]3[C@H](O)[C@@H](O)[C@@H](O[C@H]4[C@H](O)[C@@H](O)C(O)O[C@@H]4CO)O[C@@H]3CO)O[C@@H]2CO)[C@H](O)[C@@H](O)[C@@H]1O (stereo partly drawn) [Maltotetraose, maltotetraose] |  | +++ |  | +++
11 | OC[C@@H](O)[C@@H](O[C@H]1O[C@H](CO)[C@@H](O[C@H]2O[C@H](CO)[C@@H](O)[C@H](O)[C@H]2O)[C@H](O)[C@H]1O)[C@H](O)[C@@H](O)CO [Maltotriitol, maltotriitol] |  | + |  | +
12 | OC[C@H]1O[C@@H](O[C@H]2O[C@H](CO)[C@@H](O)[C@H](O)[C@H]2O)[C@H](O)[C@@H](O)[C@@H]1O [Neotrehalose, neotrehalose] |  | + |  | +
13 | OC[C@H]1O[C@H](O[C@H]2[C@H](O)[C@@H](CO)OC(O)[C@@H]2O)[C@H](O)[C@@H](O)[C@@H]1O (stereo partly drawn) [Nigerose, nigerose] |  | + |  | +
14 | OC[C@H]1O[C@H](OC[C@H]2O[C@H](O[C@H]3[C@H](O)[C@@H](O)C(O)O[C@@H]3CO)[C@H](O)[C@@H](O)[C@@H]2O)[C@H](O)[C@@H](O)[C@@H]1O (stereo partly drawn) [Panose, panose] |  | − |  | −
15 | OC[C@H]1O[C@H](O[C@H]2O[C@H](CO)[C@@H](O)[C@H](O)[C@H]2O[C@H]2O[C@H](CO)[C@@H](O)[C@H](O)[C@H]2O)[C@H](O)[C@@H](O)[C@@H]1O [Selaginose, selaginose] |  | − |  | −
16 | isomaltosyl glucoside [Isomaltosylglucoside] |  | − |  | −
17 | maltoheptaose |  | +++ |  | +++
18 | maltohexaose |  | +++ |  | +++
19 | maltopentaose |  | +++ |  | +++
20 | maltotriose |  | ++ |  | ++

Source: patent publication US20080241904A1, “PROCESS FOR PRODUCING ISOMALTOSE AND USES THEREOF” (KABUSHIKI KAISHA HAYASHIBARA SEIBUTSU KAGAKU KENKYUJO, priority 2001, published 2008)
